{"source": "patent EP4707279A1", "about": "“SUBSTITUTED TRICYCLIC HETEROCYCLIC COMPOUND AS PHARMACEUTICAL FOR TREATMENT OR PREVENTION OF COVID-19” (priority 2023, dated 2024)"}
{"test_system": "SARS-CoV-2", "test": "microbe, parasite or virus in culture", "type": "cell-based", "details": "Severe acute respiratory syndrome coronavirus 2, VeroE6-TMPRSS2 cells, read-out: inhibition of CPE", "units": {"inhibition at 10 µM": "%"}}
{"compound": "CCC(CC)COC(=O)[C@H](C)N[P@](=O)(OC[C@H]1O[C@@](C#N)(c2ccc3c(N)ncnn23)[C@H](O)[C@@H]1O)Oc1ccccc1", "note": "[Remdesivir]", "inhibition at 10 µM": "≥ 90"}
{"test_system": "VeroE6-TMPRSS2 cells", "test": "not given", "details": "48 hours, CellTiter-Glo", "protocol": "(§1) To evaluate the cytotoxicity of the selected compound, CellTiter-Glo (registered trademark) Luminescent Cell Viability Assay (Promega Corporation, Madison, WI, USA) was conducted. Briefly, VeroE6-TMPRSS2 or Caco-2 cells (4×10^4 cells/well) were incubated with different concentrations of the compound for 48 hours, and then, the number of cells was measured as the amount of ATP in the cell lysate supernatant using CellTiter-Glo (registered trademark) Luminescent Cell Viability Assay method. The CC50 of the compound was calculated by GraphPad. The repeated test was conducted three times.\n(§2) VeroE6 (ATCC CRL-1586 (registered trademark)) and Vero E6-TMPRSS2 (BPS Bioscience Catalog #78081) as well as Caco-2 cells (ATCC HTB-37 (registered trademark)) were purchased as commercial products and they were passaged in Dulbecco's Modified Eagle Medium (DMEM, Gibco, CA, USA) supplemented with 10% heat-inactivated fetal bovine serum (FBS, Gibco, CA, USA), 50 U/mL penicillin, and 50 µg/mL streptomycin. All antibiotics and supplements were purchased from Thermo Fisher Scientific, Inc. (Waltham, MA).", "units": {"CC50": "µM"}}
{"compound": "O=C(NCc1ccc2ccccc2c1)[C@@H]1CC[C@H]2N1C(=O)[C@@H](Cc1ccccc1)N1C(=O)N(Cc3ccccc3)C(=O)N(Cc3ccccc3)[C@]21O", "note": "[Compound 1D, (6R,9S,11aR,11bR)-1,3,6-Tribenzyl-11b-hydroxy-N-(naphthalen-2-ylmethyl)-2,4,7-trioxo-2H-pyrrolo[2',1':3,4] pyridazine[1,2-a][1,3,5]triazine-9-carboxamide]", "CC50": 145}
{"test_system": "Caco-2 cells", "test": "not given", "details": "48 hours, CellTiter-Glo", "protocol": "as §1, §2", "units": {"CC50": "µM"}}
{"compound": "O=C(NCc1ccc2ccccc2c1)[C@@H]1CC[C@H]2N1C(=O)[C@@H](Cc1ccccc1)N1C(=O)N(Cc3ccccc3)C(=O)N(Cc3ccccc3)[C@]21O", "note": "[Compound 1D, (6R,9S,11aR,11bR)-1,3,6-Tribenzyl-11b-hydroxy-N-(naphthalen-2-ylmethyl)-2,4,7-trioxo-2H-pyrrolo[2',1':3,4] pyridazine[1,2-a][1,3,5]triazine-9-carboxamide]", "CC50": "> 400"}
{"test_system": "SARS-CoV-2", "test": "CPE inhibition assay, anti-SARS-CoV-2 virus activity in vitro (Test Example 4)", "type": "cell-based", "details": "10 µM"}
{"compound": "O=C(NCc1ccc2ccccc2c1)[C@@H]1CC[C@H]2N1C(=O)[C@@H](Cc1ccccc1)N1C(=O)N(Cc3ccccc3)C(=O)N(Cc3ccccc3)[C@]21O", "note": "[Compound 1D, (6R,9S,11aR,11bR)-1,3,6-Tribenzyl-11b-hydroxy-N-(naphthalen-2-ylmethyl)-2,4,7-trioxo-2H-pyrrolo[2',1':3,4] pyridazine[1,2-a][1,3,5]triazine-9-carboxamide]", "Anti SARS-CoV-2 activity": "A (a CPE inhibition effect of 5% or more)"}
{"test_system": "SARS-CoV-2", "test": "CPE inhibition assay, anti-SARS-CoV-2 virus activity in vitro (Test Example 4)", "type": "cell-based", "details": "CPE inhibition at 10 µM; VeroE6-TMPRSS2 cells; MOI 0.01; third day post infection; average of three tests"}
{"compound": "(6S,9R,11aS,11bS)-1,3-Dibenzyl-11b-hydroxy-6-isopropyl-N-(naphthalen-2^-ylmethyl)-2,4,7-trioxodecahydro-2H-pyrrolo[2',1':3,4]pyrazino[ 1,2-a][1,3,5]triazine-9-carboxamide [Compound 26D]", "Anti SARS-CoV-2 activity": "A (a CPE inhibition effect of 5% or more)"}
{"compound": "(6S,11a8)-1,3,6-tribenzyl-11b-hydroxy-11a-methylhexahydro-2H-pyrrolo[2',1':3,4]pyrazino [1,2-a][1,3,5]triazine-2,4,7(3H,6 H)-trione [Compound 12A]", "Anti SARS-CoV-2 activity": "B (a CPE inhibition effect of less than 5% but 1% or more)"}
{"compound": "(6S,13aS)-1,3,6-tribenzyl-13b-hydroxy-1,13,13a,13b-tetrahydro-2H-[1,3,5] triazino[2',1':3,4]pyraz ino[1,2-a]indole-2,4.7(3H,6H)-trione [Compound 24A]", "Anti SARS-CoV-2 activity": "C (less than 1%)"}
{"compound": "Ethyl (6R)-1,3,6-tribenzyl-11b-hydroxy-2,4,7-trioxodecahydro-2H-pyrrolo[2',1':3,4] pyridazino[1,2-a] [1,3,5]triazine-9-carboxylate [Compound 22A]", "Anti SARS-CoV-2 activity": "B (a CPE inhibition effect of less than 5% but 1% or more)"}
{"compound": "Ethyl (6R,9S,11aR)-11b-hydroxy-6-isopropyl-2.4,7-trioxo-1,3-bis(thiophen-2-ylmethyl)decahydro-2H-pyrrolo[2',1':3,4] pyrazino[1,2-a][1,3,5] triazine-9-carboxylate [Compound 27A]", "Anti SARS-CoV-2 activity": "A (a CPE inhibition effect of 5% or more)"}
{"compound": "Ethyl (6R,9S,11aR,11bR)-1,3-dibenzyl-11b-hydroxy-6-(4-methoxybenzyl)-2,4.7-trioxodecahydro-2H-pyrrolo [2',1':3,4]pyrazino[1,2-a][1,3,5] triazine-9-carboxylate [Compound 6A]", "Anti SARS-CoV-2 activity": "C (less than 1%)"}
{"compound": "Ethyl (6R,9S,11aR,11bR)-1,3-dibenzyl-11b-hydroxy-6-methyl-2,4,7-trioxodecahydro-2H-pyrrolo[2',1':3,4]pyrazino[1,2-a] [1.3.5]triazine-9-carboxylate [Compound 2A]", "Anti SARS-CoV-2 activity": "C (less than 1%)"}
{"compound": "Ethyl (6R,9S,11aR,11bR)-1.3 dibenzyl 11b-hydroxy 6 isobutyl-2.4.7 trioxodecahydro-2H pyrrolo[2',1':3,4] pyrazino[1.2 a][1.3.5] triazine 9 carboxylate [Compound 30A]", "Anti SARS-CoV-2 activity": "A (a CPE inhibition effect of 5% or more)"}
{"compound": "Ethyl (6R.9S.11aR.11b R) 6 benzyl 11b-hydroxy 2,4,7 trioxo-1.3 bis(thiophen 2 ylm ethyl)decahydro-2H-pyrrolo[2',1':3,4] pyridazine[1,2-a] [1,3,5]triazine 9 carboxylate [Compound 18A]", "Anti SARS-CoV-2 activity": "A (a CPE inhibition effect of 5% or more)"}
{"compound": "Ethyl (6S,9R,11aS)-6-benzyl-11b-hydroxy-2,4.7-trioxo-1,3-bis(thiophen-2-ylmethyl) decahydro-2H-pyrrolo[2',1':3,4] pyrazino[1,2-a][1,3,5] triazine-9-carboxylate [Compound 23A]", "Anti SARS-CoV-2 activity": "A (a CPE inhibition effect of 5% or more)"}
{"compound": "Ethyl (6S,9R,11aS,11bS)-1,3,6-tribenzyl-11b-hydroxy-2,4.7-trioxodecahydro-2H-pyrrolo [2',1':3,4]pyrazino[1,2-a][1,3,5] triazine-9-carboxylate [Compound 4A]", "Anti SARS-CoV-2 activity": "C (less than 1%)"}
